Tests used:
Skeletonema costatum = assay: Acute aquatic toxicity, ISO 10253; type: in vivo; conditions: Hec50, 72 h, Method: ISO 10253
Method: (§1) (i) acute toxicity to the most sensitive marine species (skeletonema costatum) must be greater than EC50 of 10 mg/L; (ii) bioaccumulation potential (as indicated by Log Pow, the octanol-water partition coefficient) must be below 3 or the molecular weight must be greater than 700; and (iii) biodegradation in 28 days is greater than 60%. Corrosion inhibitor intermediates such as the quaternary ammonium salt were tested for their level of acute aquatic toxicity (Table 9), Log Pow (Table 10), and their ability to biodegrade in 28 days (Table 10).

[1] = Log Pow (octanol-water partition coefficient), OECD 117; type: physicochemical; conditions: n-octanol/water; Method: OECD 117
From the text: The bioaccumulation potential of chemical substances has generally been determined from the n-octanol/water partition coefficient (expressed as log Pow) and the bioconcentration factor. The log Pow represents the ratio of a material that dissolves or disperses in octanol (the oil phase) versus water. This coefficient is used as a chemical surrogate for bioaccumulative potential. A log Pow of less than ten is preferred, a log Pow of less than six is more preferred, and a log Pow of less than three is most preferred.
as §1

[2] = Acute aquatic toxicity, ISO 146669; conditions: Acartia tonsa, in vivo, Method: ISO 146669
Method: as §1

Corophium volutator = assay: Acute aquatic toxicity, PARCOM; type: in vivo; conditions: Method: PARCOM
Method: as §1

[3] = Biodegradation in 28 days, Marine BODIS; conditions: Method: Marine BODIS
From the text: Biodegradation is the chemical breakdown of a material by microorganisms into nutrients that can be used by other organisms. Generally, a complex molecule can be broken down into carbon dioxide, water, microbial biomass, and/or inorganic salts. A biodegradation of 10% or greater is preferred, biodegradation of 20% or greater is more preferred, and a biodegradation of 60% or greater is most preferred.
as §1

SMILES	EC50 (Skeletonema costatum)	chromatographic logP [1]	LC50 at 48 h [2]	Corophium volutator 10 d LC50 (Corophium volutator)	Biodegradation (28 days) [3]
CCOC(=O)c1cc[n+](Cc2cccc3ccccc23)cc1.[Cl-] [Compound 1]	> 10 µg/mL	2.7			
NC(=O)c1ccc[n+](Cc2cccc3ccccc23)c1.[Cl-] [Compound 4]		2.1	105 µg/mL	6116.15 mg/kg	40%^7

— patent publication US9074289B2, “Environmentally friendly corrosion inhibitor” (NALCO COMPANY, priority 2011, dated 2015)
